Data published in PubChem BioAssay (NCI).
Several values for one entry are separate records, joined by “and”; a condition that tells them apart may be missing. Equal values may be shown once.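 In this assay, cells in 96-well plates receive the compound at five concentrations for 48 hours. Endpoints are linearly interpolated between the surrounding concentrations. GI50 is the concentration that inhibits growth by half. TGI denotes the concentration required for complete inhibition of growth.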

What was measured:
Test in all cases: NCI tumour cell line growth inhibition, 48 h
T-47D breast = test system: T-47D breast
NCI-H522 lung = test system: NCI-H522 lung
RPMI-8226 leukemia = test system: RPMI-8226 leukemia
SNB-75 CNS = test system: SNB-75 CNS
CAKI-1 renal = test system: CAKI-1 renal
HCT-116 colon = test system: HCT-116 colon
UACC-257 melanoma = test system: UACC-257 melanoma
MDA-MB-231 breast = test system: MDA-MB-231 breast
P388 leukemia = test system: P388 leukemia
U251 CNS = test system: U251 CNS
SK-MEL-2 melanoma = test system: SK-MEL-2 melanoma
TK-10 renal = test system: TK-10 renal
A498 renal = test system: A498 renal
A549 NSCLC = test system: A549 NSCLC
HCT-15 colon = test system: HCT-15 colon
OVCAR-4 ovarian = test system: OVCAR-4 ovarian
MDA-N = test system: MDA-N
SF-268 CNS = test system: SF-268 CNS
SK-MEL-5 melanoma = test system: SK-MEL-5 melanoma
EKVX NSCLC = test system: EKVX NSCLC
M14 melanoma = test system: M14 melanoma
MALME-3M melanoma = test system: MALME-3M melanoma
NCI/ADR-RES ovarian = test system: NCI/ADR-RES ovarian
PC-3 prostate = test system: PC-3 prostate
DMS 273 small cell lung = test system: DMS 273 small cell lung
HL-60(TB) leukemia = test system: HL-60(TB) leukemia
XF 498 CNS = test system: XF 498 CNS
KM12 colon = test system: KM12 colon
SN12K1 renal = test system: SN12K1 renal
DLD-1 colon = test system: DLD-1 colon
LXFL 529 NSCLC = test system: LXFL 529 NSCLC
HOP-62 NSCLC = test system: HOP-62 NSCLC
SNB-78 CNS = test system: SNB-78 CNS
786-0 renal = test system: 786-0 renal
SF-295 CNS = test system: SF-295 CNS
OVCAR-5 ovarian = test system: OVCAR-5 ovarian
CCRF-CEM leukemia = test system: CCRF-CEM leukemia
SK-OV-3 ovarian = test system: SK-OV-3 ovarian
SK-MEL-28 melanoma = test system: SK-MEL-28 melanoma
HCC-2998 colon = test system: HCC-2998 colon
ACHN renal = test system: ACHN renal
SR leukemia = test system: SR leukemia
DU-145 prostate = test system: DU-145 prostate
SN12C renal = test system: SN12C renal
MDA-MB-435 = test system: MDA-MB-435
UACC-62 melanoma = test system: UACC-62 melanoma
BT-549 breast = test system: BT-549 breast
P388/ADR leukemia = test system: P388/ADR leukemia
NCI-H23 lung = test system: NCI-H23 lung
LOX IMVI melanoma = test system: LOX IMVI melanoma
UO-31 renal = test system: UO-31 renal
RXF 393 renal = test system: RXF 393 renal
OVCAR-8 ovarian = test system: OVCAR-8 ovarian
COLO 205 colon = test system: COLO 205 colon

CCOC(=O)C(CC(C)C)NC(=O)C(Cc1ccc(N(CCCl)CCCl)cc1)NC(C)=O (stereo unspecified)
TGI (T-47D breast): 11.2 µM
GI50 (NCI-H522 lung): 2.52 µM
TGI (NCI-H522 lung): 8.68 µM and 3.87 µM
GI50 (RPMI-8226 leukemia): 3.19 µM
TGI (RPMI-8226 leukemia): 14.8 µM and 15 µM
GI50 (SNB-75 CNS): 8.51 µM
TGI (SNB-75 CNS): 21.7 µM and 24.9 µM
GI50 (CAKI-1 renal): 3.71 µM
TGI (CAKI-1 renal): 16.2 µM and 6.73 µM
GI50 (HCT-116 colon): 12.7 µM
TGI (HCT-116 colon): 29.3 µM and 39.8 µM
TGI (UACC-257 melanoma): 14 µM and 13.1 µM
TGI (MDA-MB-231 breast): 23.2 µM
TGI (P388 leukemia): 10.6 µM
GI50 (U251 CNS): 10.2 µM
TGI (U251 CNS): 26.2 µM and 27 µM
GI50 (SK-MEL-2 melanoma): 1.81 µM
TGI (SK-MEL-2 melanoma): 4.74 µM and 5.49 µM
TGI (TK-10 renal): 30.2 µM and 32.2 µM
GI50 (A498 renal): 18.4 µM
TGI (A498 renal): 37 µM and 48.4 µM
TGI (A549 NSCLC): > 100 µM and 77.5 µM
TGI (HCT-15 colon): 43.1 µM
GI50 (OVCAR-4 ovarian): 16.1 µM
TGI (OVCAR-4 ovarian): 29.5 µM and 27.1 µM
TGI (MDA-N): 6.91 µM
TGI (SF-268 CNS): 22.6 µM and 20.5 µM
GI50 (SK-MEL-5 melanoma): 10.6 µM
TGI (SK-MEL-5 melanoma): 23.5 µM and 10.7 µM
GI50 (EKVX NSCLC): 19.7 µM
TGI (EKVX NSCLC): 35.7 µM and 27.7 µM
GI50 (M14 melanoma): 4.13 µM
TGI (M14 melanoma): 15.8 µM and 8.08 µM
GI50 (MALME-3M melanoma): 4.01 µM
TGI (MALME-3M melanoma): 22.8 µM and 7.77 µM
TGI (NCI/ADR-RES ovarian): 68.5 µM
TGI (PC-3 prostate): 57.8 µM
TGI (DMS 273 small cell lung): 20.1 µM and 24.9 µM
GI50 (HL-60(TB) leukemia): 2.07 µM
TGI (HL-60(TB) leukemia): 28.7 µM and 3.32 µM
TGI (XF 498 CNS): 1.14 µM
GI50 (KM12 colon): 17.8 µM
TGI (KM12 colon): 37.5 µM and 44.7 µM
TGI (SN12K1 renal): 10.4 µM
GI50 (DLD-1 colon): 5.4 µM and 8.64 µM
TGI (DLD-1 colon): 21.1 µM and 31.3 µM
TGI (LXFL 529 NSCLC): 26.5 µM
GI50 (HOP-62 NSCLC): 6.09 µM
TGI (HOP-62 NSCLC): 23.1 µM and 14.2 µM
TGI (SNB-78 CNS): 16.6 µM and 17.8 µM
GI50 (786-0 renal): 4.11 µM
TGI (786-0 renal): 16.6 µM and 8.47 µM
GI50 (SF-295 CNS): 7.89 µM
TGI (SF-295 CNS): 26.8 µM and 26.3 µM
TGI (OVCAR-5 ovarian): 32 µM and 33.5 µM
GI50 (CCRF-CEM leukemia): 2.52 µM
GI50 (SK-OV-3 ovarian): 21.7 µM
TGI (SK-OV-3 ovarian): 58.6 µM and 35.5 µM
GI50 (SK-MEL-28 melanoma): 14.6 µM
TGI (SK-MEL-28 melanoma): 31.2 µM and 19.3 µM
GI50 (HCC-2998 colon): 17.2 µM
TGI (HCC-2998 colon): 31.5 µM and 30.6 µM
GI50 (ACHN renal): 3.7 µM
TGI (ACHN renal): 16 µM and 9.63 µM
GI50 (SR leukemia): 1.04 µM and 0.895 µM
TGI (SR leukemia): 10.8 µM and 7 µM
TGI (DU-145 prostate): 21.9 µM
GI50 (SN12C renal): 4.59 µM
TGI (SN12C renal): 17.2 µM and 14.6 µM
TGI (MDA-MB-435): 11.5 µM
GI50 (UACC-62 melanoma): 2.86 µM
TGI (UACC-62 melanoma): 12.7 µM and 7.29 µM
TGI (BT-549 breast): 32.3 µM
TGI (P388/ADR leukemia): 10.5 µM
GI50 (NCI-H23 lung): 5.17 µM
TGI (NCI-H23 lung): 16.7 µM and 16.5 µM
GI50 (LOX IMVI melanoma): 3.34 µM
TGI (LOX IMVI melanoma): 15.1 µM and 12.5 µM
GI50 (UO-31 renal): 13.2 µM
TGI (UO-31 renal): 73 µM and 20.4 µM
GI50 (RXF 393 renal): 2.57 µM
TGI (RXF 393 renal): 6.75 µM and 4.46 µM
GI50 (OVCAR-8 ovarian): 12.1 µM
TGI (OVCAR-8 ovarian): 30.8 µM and 55.2 µM
GI50 (COLO 205 colon): 7.01 µM
TGI (COLO 205 colon): 19.8 µM and 13 µM
